The values that follow come from PubChem BioAssay AID248 (DTP/NCI, 2004).

The assay concerns L1210 leukemia ip in BDF1 mice, survival T/C. Put plainly: NCI In Vivo Anticancer Drug Screen. Data for tumor model L1210 Leukemia (intraperitoneal) in B6D2F1 (BDF1) mice. Conditions: endpoint: mean survival time, higher = longer survival. In a few lines: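 Antitumor effect is assessed in tumor-bearing animals. Survival in the compound arm is compared with a vehicle-dosed control arm and expressed as their quotient.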

[1] abbreviates: dose: 100.0 mg/kg/injection, schedule: Q04DX002 (ip), vehicle: Klucel (hydroxypropylcellulose) (HPC).
Where [2] appears, read: dose: 200.0 mg/kg/injection, schedule: Q04DX002 (ip), vehicle: Klucel (hydroxypropylcellulose) (HPC).
The mark [3] stands for this setting: dose: 400.0 mg/kg/injection, schedule: Q04DX002 (ip), vehicle: Klucel (hydroxypropylcellulose) (HPC).
[4] abbreviates: dose: 60.0 mg/kg/injection, schedule: Q01DX Z (ip), vehicle: methylcellulose (MC).
Where [5] appears, read: dose: 100.0 mg/kg/injection, schedule: Q01DX009 (ip), vehicle: Klucel (hydroxypropylcellulose) (HPC).
The mark [6] stands for this setting: dose: 200.0 mg/kg/injection, schedule: Q01DX009 (ip), vehicle: Klucel (hydroxypropylcellulose) (HPC).
[7] abbreviates: dose: 50.0 mg/kg/injection, schedule: Q01DX001 (ip), vehicle: saline.
Where [8] appears, read: dose: 100.0 mg/kg/injection, schedule: Q01DX001 (ip), vehicle: saline.
Where [9] appears, read: dose: 200.0 mg/kg/injection, schedule: Q01DX001 (ip), vehicle: saline.
Where [10] appears, read: dose: 400.0 mg/kg/injection, schedule: Q01DX001 (ip), vehicle: saline.

Several values for one entry are separate records, joined by “and”; a condition that tells them apart may be missing. Identical values can stand only once. Toxic doses and inconclusive results are not listed.

Consider `COc1ccc(C(=O)c2ccccc2)cc1`, for which the T/C under setting [1] was 115 % of control, the T/C under setting [2] is 86 % of control and the T/C under setting [3] is 86 % of control.
In the case of `CN(C)c1ccc(/C=N/Nc2nnc(N/N=C/c3ccc(N(C)C)cc3)c3ccccc23)cc1`, the T/C reads like this: (dose: 50.0 mg/kg/injection, schedule: Q01DX001 (ip), vehicle: carboxymethylcellulose (CMC)) 98 % of control and 91 % of control; (dose: 100.0 mg/kg/injection, schedule: Q01DX001 (ip), vehicle: carboxymethylcellulose (CMC)) 86 % of control; (dose: 200.0 mg/kg/injection, schedule: Q01DX001 (ip), vehicle: carboxymethylcellulose (CMC)) 93 % of control and 91 % of control; (dose: 400.0 mg/kg/injection, schedule: Q01DX001 (ip), vehicle: carboxymethylcellulose (CMC)) 100 % of control and 104 % of control.
As to `OC(c1ccc(Cl)cc1)(c1ccc(Cl)cc1)C(F)(Cl)Cl`, the T/C reads like this: (dose: 26.6 mg/kg/injection, schedule: Q01DX Z (ip), vehicle: methylcellulose (MC)) 87 % of control; (dose: 40.0 mg/kg/injection, schedule: Q01DX Z (ip), vehicle: methylcellulose (MC)) 107 % of control; under setting [4], 96 % of control.
`CC12CCCCC1C(C(C)(C)OC(=O)c1ccc([N+](=O)[O-])cc1)CC2` (centres undefined): the T/C is 105 % of control (dose: 25.0 mg/kg/injection, schedule: Q04DX002 (ip), vehicle: Klucel (hydroxypropylcellulose) (HPC)); 99 % of control (dose: 50.0 mg/kg/injection, schedule: Q04DX002 (ip), vehicle: Klucel (hydroxypropylcellulose) (HPC)); 89 % of control under setting [1].
For the compound `Cc1c(Cl)cccc1NC(=O)c1cccc([N+](=O)[O-])c1`, the T/C is 103 % of control under setting [5]; 96 % of control (dose: 100.0 mg/kg/injection, schedule: Q04DX003 (ip), vehicle: Klucel (hydroxypropylcellulose) (HPC)); 95 % of control under setting [6]; 93 % of control (dose: 200.0 mg/kg/injection, schedule: Q04DX003 (ip), vehicle: Klucel (hydroxypropylcellulose) (HPC)); 94 % of control (dose: 400.0 mg/kg/injection, schedule: Q01DX009 (ip), vehicle: Klucel (hydroxypropylcellulose) (HPC)); 91 % of control (dose: 400.0 mg/kg/injection, schedule: Q04DX003 (ip), vehicle: Klucel (hydroxypropylcellulose) (HPC)).
For the compound `CCSC1OC(C(COC(C)=O)OC(C)=O)C(OC(C)=O)C1NC(C)=S` (centres undefined), the T/C was 97 % of control under setting [7], 103 % of control under setting [8], 103 % of control under setting [9] and 100 % of control under setting [10].
For the compound `S=C(NCCCN1Cc2ccccc2C1)Nc1ccccc1`, the T/C is 96 % of control under setting [8], 104 % of control under setting [9] and 96 % of control under setting [10].
For `COC(=O)N/N=C/c1ccccc1Cl`, the T/C is, setting by setting: under setting [5], 108 % of control; under setting [1], 93 % of control; under setting [6], 121 % of control; under setting [2], 104 % of control; under setting [3], 96 % of control.
Consider `O=C(O)C1C2OC(C(Cl)C2Cl)C1C(=O)O` (centres undefined), for which the T/C is, setting by setting: under setting [1], 98 % of control; under setting [2], 103 % of control; under setting [3], 95 % of control.
With `COc1ccccc1/C=N\N=C(N/N=C/c1ccccc1OC)N/N=C/c1ccccc1OC`, the T/C was 96 % of control (dose: 15.0 mg/kg/injection, schedule: Q01DX Z (ip), vehicle: methylcellulose (MC)); 108 % of control (dose: 30.0 mg/kg/injection, schedule: Q01DX Z (ip), vehicle: methylcellulose (MC)); 101 % of control under setting [4]; 102 % of control (dose: 60.0 mg/kg/injection, schedule: Q01DX Z (oral), vehicle: methylcellulose (MC)); 102 % of control (dose: 120.0 mg/kg/injection, schedule: Q01DX Z (ip), vehicle: methylcellulose (MC)); 100 % of control (dose: 120.0 mg/kg/injection, schedule: Q01DX Z (oral), vehicle: methylcellulose (MC)). Moreover, the T/C is, setting by setting: (dose: 240.0 mg/kg/injection, schedule: Q01DX Z (ip), vehicle: methylcellulose (MC)) 97 % of control; (dose: 325.0 mg/kg/injection, schedule: Q01DX Z (oral), vehicle: methylcellulose (MC)) 86 % of control; (dose: 360.0 mg/kg/injection, schedule: Q01DX Z (ip), vehicle: methylcellulose (MC)) 100 % of control; (dose: 480.0 mg/kg/injection, schedule: Q01DX Z (ip), vehicle: methylcellulose (MC)) 110 % of control; (dose: 480.0 mg/kg/injection, schedule: Q01DX Z (oral), vehicle: methylcellulose (MC)) 104 % of control; (dose: 675.0 mg/kg/injection, schedule: Q01DX Z (oral), vehicle: methylcellulose (MC)) 108 % of control.
In the case of `CCCN=C(N)c1ccc(NC(=O)c2ccc(C(=O)Nc3ccc(C(N)=NCCC)cc3)cc2)cc1`, the T/C was 105 % of control (dose: 0.16 mg/kg/injection, schedule: Q01DX Z (ip), vehicle: carboxymethylcellulose (CMC)); 113 % of control (dose: 0.31 mg/kg/injection, schedule: Q01DX Z (ip), vehicle: carboxymethylcellulose (CMC)); 211 % of control and 257 % of control (dose: 1.25 mg/kg/injection, schedule: Q01DX Z (ip), vehicle: carboxymethylcellulose (CMC)); 190 % of control (dose: 2.5 mg/kg/injection, schedule: Q01DX Z (ip), vehicle: carboxymethylcellulose (CMC)); 114 % of control (dose: 3.0 mg/kg/injection, schedule: Q01DX001 (ip), vehicle: carboxymethylcellulose (CMC)); 169 % of control (dose: 10.0 mg/kg/injection, schedule: Q01DX001 (ip), vehicle: carboxymethylcellulose (CMC)). Moreover, the T/C runs as follows: (dose: 10.0 mg/kg/injection, schedule: Q01DX001 (ip), vehicle: other) 157 % of control; (dose: 10.0 mg/kg/injection, schedule: Q01DX Z (ip), vehicle: carboxymethylcellulose (CMC)) 113 % of control; (dose: 15.0 mg/kg/injection, schedule: Q01DX001 (ip), vehicle: carboxymethylcellulose (CMC)) 176 % of control and 180 % of control; (dose: 15.0 mg/kg/injection, schedule: Q01DX001 (ip), vehicle: other) 168 % of control and 191 % of control; (dose: 22.5 mg/kg/injection, schedule: Q01DX001 (ip), vehicle: carboxymethylcellulose (CMC)) 268 % of control; (dose: 22.5 mg/kg/injection, schedule: Q01DX001 (ip), vehicle: other) 234 % of control. The T/C (dose: 33.0 mg/kg/injection, schedule: Q01DX001 (ip), vehicle: carboxymethylcellulose (CMC)) was 257 % of control; the T/C (dose: 33.0 mg/kg/injection, schedule: Q01DX001 (ip), vehicle: other) was 269 % of control; the T/C (dose: 50.0 mg/kg/injection, schedule: Q01DX Z (oral), vehicle: carboxymethylcellulose (CMC)) was 104 % of control; the T/C (dose: 100.0 mg/kg/injection, schedule: Q01DX Z (oral), vehicle: carboxymethylcellulose (CMC)) was 107 % of control; the T/C (dose: 200.0 mg/kg/injection, schedule: Q01DX Z (oral), vehicle: carboxymethylcellulose (CMC)) was 103 % of control; the T/C (dose: 400.0 mg/kg/injection, schedule: Q01DX Z (oral), vehicle: carboxymethylcellulose (CMC)) is 98 % of control.
`CC(C)(C)C#C[P+](C#CC(C)(C)C)(Cc1ccccc1)c1ccccc1`: the T/C reads like this: (dose: 12.5 mg/kg/injection, schedule: Q01DX009 (ip), vehicle: saline) 99 % of control; (dose: 12.5 mg/kg/injection, schedule: Q04DX003 (ip), vehicle: saline) 98 % of control; (dose: 25.0 mg/kg/injection, schedule: Q01DX009 (ip), vehicle: saline) 94 % of control; (dose: 25.0 mg/kg/injection, schedule: Q04DX003 (ip), vehicle: saline) 106 % of control; (dose: 50.0 mg/kg/injection, schedule: Q04DX003 (ip), vehicle: saline) 117 % of control.
Turning to `CC(C)(N)CO`, the T/C under setting [7] was 104 % of control; the T/C under setting [8] is 101 % of control; the T/C (dose: 100.0 mg/kg/injection, schedule: Q04DX002 (ip), vehicle: saline) was 100 % of control; the T/C (dose: 100.0 mg/kg/injection, schedule: Q04DX003 (ip), vehicle: saline) is 106 % of control; the T/C under setting [9] is 104 % of control; the T/C (dose: 200.0 mg/kg/injection, schedule: Q04DX002 (ip), vehicle: saline) was 110 % of control. Moreover, the T/C was 106 % of control (dose: 200.0 mg/kg/injection, schedule: Q04DX003 (ip), vehicle: saline); 101 % of control under setting [10]; 100 % of control (dose: 400.0 mg/kg/injection, schedule: Q04DX002 (ip), vehicle: saline); 105 % of control (dose: 400.0 mg/kg/injection, schedule: Q04DX003 (ip), vehicle: saline).
